Data taken from US20250382549A1, “MULTIFUNCTIONAL N-OXIDE HYDROTROPES, CLEANING FORMULATIONS CONTAINING THEM AND USE THEREOF” (NOURYON CHEMICALS INTERNATIONAL B.V., priority 2022, published 2025).

Test: Degreasing effect on a soiled white painted metal plate (non-mechanical cleaning)
Conditions: 1:40 dilution in water, poured over painted metal plate soiled with train engine grease, rinsed with tap water
Procedure: The degreasing effect of the test formulations was assessed on a white painted metal plate soiled uniformly with a tough-to-clean greasy soil collected from a train engine. The cleaning formulation (1:40 dilution in water) was applied simply by pouring it over the surface (non-mechanical cleaning). After a short time interval, the whole plate was rinsed with tap water and cleaning performance was assessed quantitatively. The results are tabulated below and depicted in FIG. 1A (for the respective cleaning formulations A, B, and C containing no NaOH) and FIG. 1B. (for the respective cleaning formulations D, E, and F containing 2% NaOH).

Question: For “C12/14 alkyl methylamine ethoxylate N-Oxide”, which “Cleaning Performance” value is on record?
Answer: Its value is “performs as well as the comparison hydrotrope”.
